Laboratory results: patent US10130642B2, “Neprilysin inhibitors” (THERAVANCE BIOPHARMA R&D IP, LLC, priority 2011, dated 2018)

target: human NEP (Homo sapiens (Human), UniProt P08473); test: In vitro enzyme inhibition assay, inhibitor potencies at human NEP
Sequence (P08473 52-750): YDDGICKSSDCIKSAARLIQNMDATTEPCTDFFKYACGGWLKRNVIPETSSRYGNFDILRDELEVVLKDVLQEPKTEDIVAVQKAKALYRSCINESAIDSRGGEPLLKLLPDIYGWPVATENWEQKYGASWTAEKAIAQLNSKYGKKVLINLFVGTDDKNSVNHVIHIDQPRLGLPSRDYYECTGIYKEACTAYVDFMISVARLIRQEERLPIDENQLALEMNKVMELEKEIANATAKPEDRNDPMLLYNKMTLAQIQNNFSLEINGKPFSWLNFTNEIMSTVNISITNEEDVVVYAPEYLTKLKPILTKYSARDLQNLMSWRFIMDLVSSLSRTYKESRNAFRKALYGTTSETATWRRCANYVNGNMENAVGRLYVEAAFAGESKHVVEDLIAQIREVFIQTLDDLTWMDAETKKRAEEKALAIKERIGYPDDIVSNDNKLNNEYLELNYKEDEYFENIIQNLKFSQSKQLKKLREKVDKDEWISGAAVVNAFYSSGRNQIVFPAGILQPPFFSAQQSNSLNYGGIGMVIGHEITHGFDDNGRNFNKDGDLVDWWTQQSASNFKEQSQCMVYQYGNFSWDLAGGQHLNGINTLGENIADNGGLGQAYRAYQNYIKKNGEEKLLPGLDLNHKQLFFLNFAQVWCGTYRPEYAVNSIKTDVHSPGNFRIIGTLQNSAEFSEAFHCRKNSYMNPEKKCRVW
Procedure: The inhibitory activities of compounds at human and rat neprilysin (EC 3.4.24.11; NEP) and human angiotensin converting enzyme (ACE) were determined using in vitro assays as described below.
The assays were performed in 384-well white opaque plates at 37° C. using the fluorogenic peptide substrates at a concentration of 10 μM in Assay Buffer (NEP: 50 mM HEPES, pH 7.5, 100 mM NaCl, 0.01% polyethylene glycol sorbitan monolaurate (Tween-20), 10 μM ZnSO4; ACE: 50 mM HEPES, pH 7.5, 100 mM NaCl, 0.01% Tween-20, 1 μM ZnSO4).
Test compounds were assayed over the range of concentrations from 10 μM to 20 pM. Test compounds were added to the enzymes and incubated for 30 minute at 37° C. prior to initiating the reaction by the addition of substrate.
Inhibition constants were obtained by nonlinear regression of the data using the equation (GraphPad Software, Inc., San Diego, Calif.): ν=ν0/[1+(I/K′)] where ν is the reaction rate, ν0 is the uninhibited reaction rate, I is the inhibitor concentration and K′ is the apparent inhibition constant.

Compound	Ki
C[C@@](CO)(C[C@@H](Cc1ccc(-c2ccccc2F)cc1)NC(=O)c1cn(O)nn1)C(=O)O [Example 8-4, (2S,4R)-5-(2′-Fluoro-biphenyl-4-yl)-2-hydroxymethyl-4-[(1-hydroxy-1H-[1,2,3]triazole-4-carbonyl)-amino]-2-methyl-pentanoic acid]	≤ 1 nM
C[C@@](CO)(C[C@@H](Cc1ccc(-c2ccccc2F)cc1)NC(=O)c1coc(=O)[nH]1)C(=O)O [Example 8-5, (2S,4R)-5-(2′-Fluoro-biphenyl-4-yl)-2-hydroxymethyl-2-methyl-4-[(2-oxo-2,3-dihydro-oxazole-4-carbonyl)-amino]-pentanoic acid]	≤ 1 nM
C[C@@](CO)(C[C@@H](Cc1ccc(-c2ccccc2F)cc1)NC(=O)c1c[nH]c(=O)o1)C(=O)O [Example 8-6, (2S,4R)-5-(2′-Fluoro-biphenyl-4-yl)-2-hydroxymethyl-2-methyl-4-[(2-oxo-2,3-dihydro-oxazole-5-carbonyl)-amino]-pentanoic acid]	≤ 1 nM
CC(C)(c1ccc(-c2ccccc2)cc1)[C@H](C[C@@H](CO)C(=O)O)NC(=O)c1cc(O)no1 [Example 9, (2S,4S)-5-Biphenyl-4-yl-4-[(3-hydroxy-isoxazole-5-carbonyl)-amino]-2-hydroxymethyl-5-methyl-hexanoic Acid]	≤ 1 nM
CC(C)(c1ccc(-c2ccccc2)cc1)[C@H](C[C@@H](CO)C(=O)O)NC(=O)c1cn(O)nn1 [Example 10-1, (2S,4S)-5-Biphenyl-4-yl-2-hydroxymethyl-4-[(1-hydroxy-1H-[1,2,3]triazole-4-carbonyl)-amino]-5-methyl-hexanoic acid]	≤ 1 nM
CC(C)(c1ccc(-c2ccccc2)cc1)[C@H](C[C@@H](CO)C(=O)O)NC(=O)c1cnn[nH]1 [Example 10-2, (2S,4S)-5-Biphenyl-4-yl-2-hydroxymethyl-5-methyl-4-[(3H-[1,2,3]triazole-4-carbonyl)-amino]-hexanoic acid]	≤ 1 nM
